Reference: patent publication US20250304576A1 (Cancer Research Technology Limited, priority 2022, published 2025)

What was measured:
Recombinant IKKα = molecular target: T1, Recombinant IKKα (Homo sapiens, UniProt O15111); test: DELFIA IKKα kinase assay (apparent Ki, Cheng-Prusoff); type: biochemical
T1 construct: purchased Millipore, Dundee, UK
T1 sequence (O15111 1-745): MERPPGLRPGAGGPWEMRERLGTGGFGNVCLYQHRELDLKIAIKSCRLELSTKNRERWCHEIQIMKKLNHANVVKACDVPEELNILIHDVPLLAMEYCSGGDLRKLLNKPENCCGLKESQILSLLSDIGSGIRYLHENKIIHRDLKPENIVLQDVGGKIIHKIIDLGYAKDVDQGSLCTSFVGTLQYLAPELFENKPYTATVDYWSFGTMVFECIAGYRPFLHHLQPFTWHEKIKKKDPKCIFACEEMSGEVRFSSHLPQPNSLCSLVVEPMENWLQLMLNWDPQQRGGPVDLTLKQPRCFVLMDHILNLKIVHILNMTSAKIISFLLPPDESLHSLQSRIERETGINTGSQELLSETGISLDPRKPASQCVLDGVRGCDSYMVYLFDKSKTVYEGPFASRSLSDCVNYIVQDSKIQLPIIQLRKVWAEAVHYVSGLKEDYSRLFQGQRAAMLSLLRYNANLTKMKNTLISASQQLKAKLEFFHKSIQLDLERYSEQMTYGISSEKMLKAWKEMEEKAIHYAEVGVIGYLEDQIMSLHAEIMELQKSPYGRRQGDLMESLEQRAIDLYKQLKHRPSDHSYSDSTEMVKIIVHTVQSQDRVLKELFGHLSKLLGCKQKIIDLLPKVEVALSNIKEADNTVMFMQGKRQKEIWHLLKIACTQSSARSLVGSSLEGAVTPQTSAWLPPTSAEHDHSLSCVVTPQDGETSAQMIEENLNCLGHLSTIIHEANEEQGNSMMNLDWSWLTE
Description: (§1) IKKα and IKKβ inhibitory activity was determined using three different assays: a dissociation enhanced ligand fluorescent immunoassay (DELFIA) based on the protocol of HTScan™ IKKβ Kinase Assay (Cell Signaling Technology, USA); an Adapta IKKα assay (performed by Life Technologies); a Z′-LYTE™ IKKβ assay (performed by Life Technologies).
(§2) Recombinant IKKα or IKKβ, 37 nM, (Millipore, Dundee, UK) was incubated with IηB-α (Ser32) (New England Biolabs, Hitchin, UK) biotinylated peptide substrate (0.375 μM) and 40 μM ATP in assay buffer (40 mM Tris-HCl (pH 7.5), 20 mM MgCl2, EDTA 1 mM, DTT 2 mM and BSA 0.01 mg/ml) in a V-well 96-well plate in the presence and absence of test compound. The assay plate was incubated for 60 minutes at 30° C. after which the kinase reaction was quenched by the addition of 50 mM EDTA, pH8. The resulting mixture was transferred to a streptavidin coated 96-well plate (Perkin Elmer, Beaconsfield, UK) and incubated for 1 hour at 30° C. to immobilise the substrate peptide. After three washes with wash buffer (0.01 M phosphate buffered saline (PBS), 0.05% Tween −20, pH 7.4) a primary antibody against the phosphorylated substrate (phospho-IηB-a) (Ser32/36) (5A5) Mouse mAb (New England Biolabs, Hitchin, UK) (1:1000 dilution with 1% bovine serum albumin (BSA) in wash buffer) was added and incubated at 37° C. for 2 h.
(§3) After a further three washes, a secondary europiated antibody (Eu-N1 labelled anti-mouse IgG, (Perkin Elmer, Beaconsfield, UK) diluted 1:500 in 1% BSA/wash buffer) was added and incubated at 30° C. for 30 minutes. After a further five washes, DELFIA enhancement solution—(Perkin Elmer, Beaconsfield UK) was added and allowed to incubate for 10 min at room temperature, protected from light, to facilitate the chemifluorescent detection. The relative fluorescence units (RFU) signal were measured on a Wallac Victor 1420 multilabel counter (Perkin Elmer, Beaconsfield, UK), in time-resolved fluorescence mode. The counter was set at an excitation wavelength of 340 nm with a 400 μs delay before detecting emitted light at 615 nm. The apparent Ki of the […] was calculated for each compound using the Cheng-Prusoff Equation.
(§4) The IKKα and IKKβ figures quoted in non-italicised form are from the DELFIA assay described above.

Recombinant IKKβ = molecular target: T2, Recombinant IKKβ (Homo sapiens, UniProt O14920); test: DELFIA IKKβ kinase assay (apparent Ki, Cheng-Prusoff); type: biochemical; settings: non-italicised figure: DELFIA assay
T2 construct: purchased Millipore, Dundee, UK
T2 sequence (O14920 1-756): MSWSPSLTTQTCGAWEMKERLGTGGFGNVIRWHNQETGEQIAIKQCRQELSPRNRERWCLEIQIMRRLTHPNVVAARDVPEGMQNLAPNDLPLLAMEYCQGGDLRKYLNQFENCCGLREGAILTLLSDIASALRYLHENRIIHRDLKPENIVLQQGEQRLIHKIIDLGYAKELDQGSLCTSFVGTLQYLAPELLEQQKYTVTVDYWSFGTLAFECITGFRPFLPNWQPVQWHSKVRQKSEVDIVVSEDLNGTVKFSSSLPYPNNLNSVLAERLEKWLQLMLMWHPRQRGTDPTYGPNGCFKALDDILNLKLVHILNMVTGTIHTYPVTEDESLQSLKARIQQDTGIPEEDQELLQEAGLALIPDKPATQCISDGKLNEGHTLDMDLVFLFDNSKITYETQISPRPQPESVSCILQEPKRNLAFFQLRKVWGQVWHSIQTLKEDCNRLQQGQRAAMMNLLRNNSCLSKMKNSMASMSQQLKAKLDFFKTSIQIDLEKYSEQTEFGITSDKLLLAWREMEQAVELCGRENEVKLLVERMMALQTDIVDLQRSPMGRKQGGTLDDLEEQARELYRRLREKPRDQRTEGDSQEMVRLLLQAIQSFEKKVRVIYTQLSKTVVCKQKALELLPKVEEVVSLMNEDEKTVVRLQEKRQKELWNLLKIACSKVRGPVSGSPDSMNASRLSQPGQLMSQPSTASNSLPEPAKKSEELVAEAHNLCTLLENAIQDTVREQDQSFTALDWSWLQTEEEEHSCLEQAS
Description: as §1, §2, §3, §4

[1] = non-italicised figure: DELFIA assay
[2] = DELFIA assay (first line of an example)

| Compound | Ki (Recombinant IKKα; [1]) [nM] | Ki (Recombinant IKKβ) [nM] | Ki (Recombinant IKKα; [2]) [nM] |
| --- | --- | --- | --- |
| Nc1cc(-c2cc(Cl)c3[nH]nc(N)c3c2)ccn1 [Example 1, 5-(2-Aminopyridin-4-yl)-7-chloro-1H-indazol-3-amine] | 55 | 880 | – |
| Cc1cc(-c2ccnc(N)c2)cc2c(N)n[nH]c12 [Example 2, 5-(2-Aminopyridin-4-yl)-7-methyl-1H-indazol-3-amine] | 72 | 461 | – |
| Nc1cc(-c2cc(C(F)(F)F)c3[nH]nc(N)c3c2)ccn1 [Example 3, 5-(2-Aminopyridin-4-yl)-7-(trifluoromethyl)-1H-indazol-3-amine] | 38 | 194 | – |
| Nc1n[nH]c2c(Cl)cc(-c3ccnc4[nH]ccc34)cc12 [Example 4, 7-Chloro-5-(1H-pyrrolo[2,3-b]pyridin-4-yl)-1H-indazol-3-amine] | 4 | 93 | – |
| Nc1n[nH]c2c(Br)cc(-c3ccnc4[nH]ccc34)cc12 [Example 5, 7-Bromo-5-(1H-pyrrolo[2,3-b]pyridin-4-yl)-1H-indazol-3-amine] | 6 | 26 | – |
| C#Cc1cc(-c2ccnc3[nH]ccc23)cc2c(N)n[nH]c12 [Example 6, 7-Ethynyl-5-(1H-pyrrolo[2,3-b]pyridin-4-yl)-1H-indazol-3-amine] | 26 | 137 | – |
| Nc1n[nH]c2c(-c3ccccc3)cc(-c3ccnc4[nH]ccc34)cc12 [Example 7, 7-Phenyl-5-(1H-pyrrolo[2,3-b]pyridin-4-yl)-1H-indazol-3-amine] | 35 | 1260 | – |
| Cc1cc2c(-c3ccc4[nH]nc(N)c4c3)ccnc2[nH]1 [Example 8, 5-(2-Methyl-1H-pyrrolo[2,3-b]pyridin-4-yl)-1H-indazol-3-amine] | 2 | 33 | – |
| CC(C)(C)c1cc2c(-c3ccc4[nH]nc(N)c4c3)ccnc2[nH]1 [Example 9, 2-(Tert-butyl)-4-(3-amino-1H-indazol-5-yl)-7-azaindole] | 19 | 109 | – |
| Nc1n[nH]c2ccc(-c3ccnc4[nH]c(C(=O)O)cc34)cc12 [Example 10, 4-(3-Amino-1H-indazol-5-yl)-1H-pyrrolo[2,3-b]pyridine-2-carboxylic acid] | 5 | 335 | – |
| Nc1n[nH]c2c(Br)cc(-c3ncnc4[nH]ccc34)cc12 [Example 11, 7-Bromo-5-(7H-pyrrolo[2,3-d]pyrimidin-4-yl)-1H-indazol-3-amine] | 39 | 258 | – |
| CCNc1cc(-c2ccc3[nH]nc(N)c3c2)ccn1 [Example 12, 5-[2-(Ethylamino)pyridin-4-yl]-1H-indazol-3-amine] | 8 | 38 | – |
| CCCNc1cc(-c2ccc3[nH]nc(N)c3c2)ccn1 [Example 13, 5-(2-(Propylamino)pyridin-4-yl)-1H-indazol-3-amine] | 49 | 251 | – |
| CC(C)Nc1cc(-c2ccc3[nH]nc(N)c3c2)ccn1 [Example 14, 5-(2-(Isopropylamino)pyridin-4-yl)-1H-indazol-3-amine] | 76 | 587 | – |
| Nc1n[nH]c2ccc(-c3ccnc(NCC4CC4)c3)cc12 [Example 15, 5-(2-((Cycipropylmethyl)amino)pyridine-4-yl)-1H-indazol-3-amine] | 171 | 796 | – |
| CC(C)CCNc1cc(-c2ccc3[nH]nc(N)c3c2)ccn1 [Example 16, 5-(2-(Isopentylamino)pyridin-4-yl)-1H-indazol-3-amine] | 65 | 838 | – |
| Nc1nccc(-c2ccc3[nH]nc(N)c3c2)c1CCCCO [Example 101, 4-(2-Amino-4-(3-amino-1H-indazol-5-yl)pyridin-3-yl)butan-1-ol] | 5580 | – | – |
| Nc1nccc(-c2ccc3[nH]nc(N)c3c2)c1CCC1(O)CCCCC1 [Example 102, 1-(2-(2-Amino-4-(3-amino-1H-indazol-5-yl)pyridin-3-yl)ethyl)cyclohexan-1-ol] | 8980 | – | – |
| Nc1nccc(-c2ccc3[nH]nc(N)c3c2)c1CCCCCO [Example 103, 5-(2-Amino-4-(3-amino-1H-indazol-5-yl)pyridin-3-yl)pentan-1-ol] | 24800 | – | – |
| CC(C)(C)C#Cc1cc(-c2ccnc(N)n2)cc2c(N)n[nH]c12 [Example 143, 5-(2-Aminopyrimidin-4-yl)-7-(3,3-dimethylbut-1-yn-1-yl)-1H-indazol-3-amine] | 517 | – | – |
| CC(C)(C)C#Cc1cc(-c2cc(N)nc(F)c2)cc2c(N)n[nH]c12 [Example 150, 5-(2-Amino-6-fluoropyridin-4-yl)-7-(3,3-dimethylbut-1-yn-1-yl)-1H-indazol-3-amine] | 573 | – | – |
| CC(C)(C)C#Cc1cc(-c2cc(N)nc(N)c2)cc2c(N)n[nH]c12 [Example 151, 4-(3-Amino-7-(3,3-dimethylbut-1-yn-1-yl)-1H-indazol-5-yl)pyridine-2,6-diamine] | 931 | – | – |
| CC1(C#Cc2cc(-c3ccnc(NC4CC4)c3)cc3c(N)n[nH]c23)COC1 [Example 176, 5-(2-(Cyclopropylamino)pyridine-4-yl)-7-((3-methyloxetan-3-yl)ethynyl)-1H-indazol-3-amine] | 19 | – | – |
| CC(=O)Nc1cc(-c2cc(C#Cc3ccccc3)c3[nH]nc(N)c3c2)ccn1 [Example 178, N-(4-(3-Amino-7-(phenylethynyl)-1H-indazol-5-yl)pyridin-2-yl)acetamide] | 22 | – | – |
| CC(C)(C)C#Cc1cc(-c2ccnc(NS(C)(=O)=O)c2)cc2c(N)n[nH]c12 [Example 193, N-(4-(3-Amino-7-(3,3-dimethylbut-1-yn-1-yl)-1H-indazol-5-yl)pyridine-2-yl)methanesulfonamide] | – | – | 5520 |
| CC(=O)Nc1cc(-c2cc(C#CC(C)(C)C)c3[nH]nc(N)c3c2)cc(F)n1 [Example 195, N-(4-(3-amino-7-(3,3-dimethylbut-1-yn-1-yl)-1H-indazol-5-yl)-6-fluoropyridin-2-yl)acetamide] | – | – | 21800 |
| CC(C)(C)C#Cc1cc(-c2ccnc3[nH]c(CN4CCOCC4)cc23)cc2c(N)n[nH]c12 [Example 279, 7-(3,3-Dimethylbut-1-yn-1-yl)-5-(2-(morpholinomethyl)-1H-pyrrolo[2,3-b]pyridin-4-yl)-1H-indazol-3-amine] | – | – | 13 |
